Measurements taken from US10865191B2, “Heterocyclic compounds useful as modulators of TNF alpha” (BRISTOL-MYERS SQUIBB COMPANY, priority 2015, dated 2020).

What follows are compounds tested against TNFα (Homo sapiens, UniProt P01375) (assay: TNF induced HEK-Blue assay (NF-kB-driven secreted alkaline phosphatase reporter)). Conditions: TNF induced HEK-Blue assay IC50 value, TNFα 0.5 ng/mL, HEK-Blue-CD40L cells, 18 h.
Type: cell-based
Procedure, shortened: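 HEK-Blue-CD40L cells (NF-kB-driven SEAP reporter), 20,000/well, added after 30 min pre-incubation of compound (0.004–25 μM final) with TNFα 0.5 ng/mL final at 37 °C; 18 h incubation. SEAP read with QUANTI-Blue at 620 nm; IC50 from 4-parameter logistic fit, normalized to unstimulated and stimulated DMSO controls.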

Chain of TNFα (P01375 77-233 limits assumed): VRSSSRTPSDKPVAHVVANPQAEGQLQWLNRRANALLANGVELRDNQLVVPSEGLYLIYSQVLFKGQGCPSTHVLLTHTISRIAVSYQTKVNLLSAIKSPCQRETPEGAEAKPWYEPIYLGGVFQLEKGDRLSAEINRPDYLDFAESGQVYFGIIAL

IC50 | SMILES
< 1 µM | CC(Nc1c(Cl)cnc2cc(F)c(-c3cnc(C(C)(C)O)nc3)cc12)c1ccccc1F (centres unmarked) [Example 252, 2-(5-(3-chloro-7-fluoro-4-((1-(2-fluorophenyl)ethyl)amino)quinolin-6-yl)pyrimidin-2-yl)propan-2-ol]
< 1 µM | C[C@@H](Nc1c(Cl)cnc2ccc(-c3ccc(S(C)(=O)=O)nc3)cc12)c1ccccc1F [Example 221, (R)-3-chloro-N-(1-(2-fluorophenyl)ethyl)-6-(6-(methylsulfonyl)pyridin-3-yl)quinolin-4-amine]

Same assay, conditions: TNFα 0.5 ng/mL, HEK-Blue-CD40L cells, 18 h; read-out: TNF induced HEK-Blue assay IC50 value

IC50 | SMILES
< 1 µM | C[C@@H](Nc1c(Cl)cnc2ccc(Cl)cc12)c1cc(-c2cncnc2)ccc1F [Example 545, (R)-3,6-dichloro-N-(1-(2-fluoro-5-(pyrimidin-5-yl)phenyl)ethyl)quinolin-4-amine]
< 1 µM | C[C@@H](Nc1c(Cl)cnc2ccc(-c3ccc(C4(N)CC4)cc3)cc12)c1ccccc1F [Example 102, (R)-6-(4-(1-aminocyclopropyl)phenyl)-3-chloro-N-(1-(2-fluorophenyl)ethyl)quinolin-4-amine]
10 to 25 µM | CC(Nc1c(Cl)cnc2ccc(-c3cnc(C(C)(C)O)nc3)cc12)[C@@H]1CCCNC1 (mixture of isomers) [Example 98, (R)-2-(5-(3-chloro-4-((1-(piperidin-3-yl)ethyl)amino)quinolin-6-yl)pyrimidin-2-yl)propan-2-ol]
10 to 25 µM | Cc1nc2ncccc2c(N[C@H](C)c2cc(-c3cncnc3)ccc2F)c1Cl [Example 556, (R)-3-chloro-N-(1-(2-fluoro-5-(pyrimidin-5-yl)phenyl)ethyl)-2-methyl-1,8-naphthyridin-4-amine]
< 1 µM | Cc1nc2cc(F)c(-c3cnc(C(C)(C)O)nc3)nc2c(N[C@H](C)c2cc(CO)ccc2F)c1Cl [Example 577, (R)-2-(5-(7-chloro-3-fluoro-8-((1-(2-fluoro-5-(hydroxymethyl)phenyl)ethyl)amino)-6-methyl-1,5-naphthyridin-2-yl)pyrimidin-2-yl)propan-2-ol]
< 1 µM | C=CC[C@@H](Nc1c(Cl)cnc2ccc(-c3cnc(C(C)(C)O)nc3)cc12)c1cc(Cl)ccn1 [Example 63, (R)-2-(5-(3-chloro-4-((1-(4-chloropyridin-2-yl)but-3-en-1-yl)amino)quinolin-6-yl)pyrimidin-2-yl)propan-2-ol]
1 to 10 µM | COC(=O)CCS(=O)(=O)c1ccc(F)c([C@@H](C)Nc2c(Cl)cnc3ccc(-c4cnc(C(C)(C)O)nc4)cc23)c1 [Example 427, Methyl (R)-3-((3-(1-((3-chloro-6-(2-(2-hydroxypropan-2-yl)pyrimidin-5-yl)quinolin-4-yl)amino)ethyl)-4-fluorophenyl)sulfonyl)propanoate]
< 1 µM | CC(Nc1c(Cl)cnc2cc(F)c(-c3cnc(C(C)(C)O)cn3)cc12)c1ccccc1F (single isomer, unassigned) [Example 595, 2-(5-(3-chloro-7-fluoro-4-((1-(2-fluorophenyl)ethyl)amino)quinolin-6-yl)pyrazin-2-yl)propan-2-ol]
1 to 10 µM | CN(C)CC(Nc1c(Cl)cnc2ccc(-c3cnc(C(C)(C)O)nc3)cc12)c1ccccc1F (racemic) [Example 12, 2-(5-(3-chloro-4-((2-(dimethylamino)-1-(2-fluorophenyl)ethyl)amino)quinolin-6-yl)pyrimidin-2-yl) propan-2-ol]
< 1 µM | CC(Nc1c(Cl)c(N)nc2ccc(-c3cnc(N4CCN(CC(=O)O)CC4)nc3)cc12)c1ccccc1F (centres unmarked) [Example 46, 2-(4-(5-(2-amino-3-chloro-4-((1-(2-fluorophenyl)ethyl)amino)quinolin-6-yl)pyrimidin-2-yl)piperazin-1-yl) acetic acid]
< 1 µM | CC(C)(O)c1ncc(-c2nc3c(NC(c4ccccc4)C(F)F)c(Cl)cnc3cc2F)cn1 (racemic) [Example 212, 2-(5-(7-chloro-8-((2,2-difluoro-1-phenylethyl)amino)-3-fluoro-1,5-naphthyridin-2-yl)pyrimidin-2-yl)propan-2-ol]
< 1 µM | CC(C)(O)c1ncc(-c2nc3c(N[C@H](c4cc(C(N)=O)ccc4F)C(F)F)c(Cl)cnc3cc2F)cn1 [Example 487, (R)-3-(1-((3-chloro-7-fluoro-6-(2-(2-hydroxypropan-2-yl)pyrimidin-5-yl)-1,5-naphthyridin-4-yl)amino)-2,2-difluoroethyl)-4-fluorobenzamide]
< 1 µM | Cc1nc2ccc(-c3cnc(C(C)(C)O)nc3)cc2c(N[C@H](C)c2ccccc2F)c1Cl [Example 441, (R)-2-(5-(3-chloro-4-((1-(2-fluorophenyl)ethyl)amino)-2-methylquinolin-6-yl)pyrimidin-2-yl)propan-2-ol]
< 1 µM | O=C1CN(c2ncc(-c3ccc4ncc(Cl)c(N[C@@H](c5ccccc5F)C(F)F)c4c3)cn2)CCN1 [Example 79, (S)-4-(5-(3-chloro-4-((2,2-difluoro-1-(2-fluorophenyl)ethyl)amino)quinolin-6-yl)pyrimidin-2-yl)piperazin-2-one]
1 to 10 µM | C[C@@H](Nc1c(Cl)cnc2ccc(-c3ccc(N4CCOC[C@H]4CO)nc3)cc12)c1ccccc1F [Example 85, ((R)-4-(5-(3-chloro-4-(((R)-1-(2-fluorophenyl)ethyl)amino)quinolin-6-yl)pyridin-2-yl)morpholin-3-yl)methanol]
< 1 µM | Cc1ccc(C)c(Nc2c(F)c(C)nc3ccc(-c4cnc(N5CCN(CC(=O)O)CC5)nc4)cc23)c1 [Example 187, 2-(4-(5-(4-((2,5-dimethylphenyl)amino)-3-fluoro-2-methylquinolin-6-yl)pyrimidin-2-yl)piperazin-1-yl)acetic acid]
10 to 25 µM | Cc1nc2cc(F)c(-c3cnc(C(C)(C)O)nc3)nc2c(N[C@H](C)c2cc(C(=O)O)ccc2F)c1Cl [Example 582, (R)-3-(1-((3-chloro-7-fluoro-6-(2-(2-hydroxypropan-2-yl)pyrimidin-5-yl)-2-methyl-1,5-naphthyridin-4-yl)amino)ethyl)-4-fluorobenzoic acid]
1 to 10 µM | CC(Nc1c(F)cnc2ccc(-c3cnc(C(C)(C)O)nc3)cc12)c1ccccc1F (racemic) [Example 156, 2-(5-(3-fluoro-4-((1-(2-fluorophenyl)ethyl)amino)quinolin-6-yl)pyrimidin-2-yl) propan-2-ol]
1 to 10 µM | CC(Nc1c(Cl)cnc2ccc(-c3cnc(C(C)(C)O)nc3)cc12)c1cc(Cl)ccn1 (racemic) [Example 62, 2-(5-(3-chloro-4-((1-(4-chloropyridin-2-yl)ethyl)amino)quinolin-6-yl)pyrimidin-2-yl)propan-2-ol]
< 1 µM | C=CC(=O)N(C)c1ncc(-c2ccc3ncc(Cl)c(N[C@H](C)c4ccccc4F)c3c2)cn1 [Example 124, (R)—N-(5-(3-chloro-4-((1-(2-fluorophenyl)ethyl)amino)quinolin-6-yl)pyrimidin-2-yl)-N-methylacrylamide]
< 1 µM | CC(C)(O)c1ncc(-c2cc3c(N[C@@H](c4cc(C(N)=O)ccc4F)C(F)F)c(Cl)cnc3cc2F)cn1 [Example 391, (S)-3-(1-((3-chloro-7-fluoro-6-(2-(2-hydroxypropan-2-yl)pyrimidin-5-yl)quinolin-4-yl)amino)-2,2-difluoroethyl)-4-fluorobenzamide]
1 to 10 µM | CC(=O)NC1CCC(O)(c2ncc(-c3ccc4ncc(Cl)c(N[C@H](C)c5ccccc5F)c4c3)cn2)CC1 (stereo partly drawn) [Example 132, (R)—N-(4-(5-(3-chloro-4-((1-(2-fluorophenyl)ethyl)amino)quinolin-6-yl)pyrimidin-2-yl)-4-hydroxycyclohexyl)acetamide]
< 1 µM | Cc1nc2ccc(-c3cnc(C(C)(C)O)nc3)cc2c(N[C@H](C)c2cc(C(N)=O)ccc2F)c1Cl [Example 387, (R)-3-(1-((3-chloro-6-(2-(2-hydroxypropan-2-yl)pyrimidin-5-yl)-2-methylquinolin-4-yl)amino)ethyl)-4-fluorobenzamide]
< 1 µM | CCC(Nc1c(Cl)cnc2ccc(-c3ccc(C(C)(C)O)cc3)cc12)c1nc(C(N)=O)ccc1F (racemic) [Example 24, 6-(1-((3-chloro-6-(4-(2-hydroxypropan-2-yl)phenyl)quinolin-4-yl)amino)propyl)-5-fluoropicolinamide]
1 to 10 µM | Cc1nc2ccc(-c3cnc(C(C)(C)O)nc3)cc2c(C(O)C(C)CC(C)C)c1Cl (single isomer, unassigned) [Example 355, 1-(3-Chloro-6-(2-(2-hydroxypropan-2-yl)pyrimidin-5-yl)-2-methylquinolin-4-yl)-2,4-dimethylpentan-1-ol]
1 to 10 µM | C=CCOc1ccc(F)c([C@@H](C)Nc2c(Cl)cnc3ccccc23)c1 [Example 457, (R)—N-(1-(5-(allyloxy)-2-fluorophenyl)ethyl)-3-chloroquinolin-4-amine]
< 1 µM | C[C@@H](Nc1c(Cl)cnc2cc(F)c(-c3cnc(N4CCC(C(C)(C)O)C4)nc3)cc12)c1ccccc1F (mixture of isomers) [Example 283, 2-(1-(5-(3-chloro-7-fluoro-4-(((R)-1-(2-fluorophenyl)ethyl)amino)quinolin-6-yl)pyrimidin-2-yl)pyrrolidin-3-yl)propan-2-ol]
< 1 µM | CC(Nc1c(Cl)cnc2ccc(-c3ccc(C(C)(C)O)cc3)cc12)c1ncco1 (racemic) [Example 179, 2-(4-(3-chloro-4-((1-(oxazol-2-yl)ethyl)amino)quinolin-6-yl)phenyl)propan-2-ol]
1 to 10 µM | COc1ccc(F)c([C@@H](C)Nc2c(Cl)c(C)nc3ccccc23)c1 [Example 329, (R)-3-chloro-N-(1-(2-fluoro-5-methoxyphenyl)ethyl)-2-methylquinolin-4-amine]
< 1 µM | Cc1nc2cc(F)c(-c3cnc(C(C)(C)O)nc3)cc2c(N[C@H](C)c2cc(C(N)=O)ccc2F)c1Cl [Example 393, (R)-3-(1-((3-chloro-7-fluoro-6-(2-(2-hydroxypropan-2-yl)pyrimidin-5-yl)-2-methylquinolin-4-yl)amino)ethyl)-4-fluorobenzamide]
